These results are taken from patent US8785149B2, “In vitro cellular bioassay for neurotoxicity testing” (The Arizona Board of Regents on Behalf of the University of …, priority 2010, dated 2014).

“Also recorded” adds a separate entry of the source.

Data set [1] relates to fascin-deficient singed-mutant neurons. As to the kind of experiment: Primary neuron culture neurotoxicity screen, fascin-deficient neurons. The conditions noted are these: 3 days in vitro; for neurotoxic defects: 10 and 50 μM, phase-contrast morphology; for beads-on-a-string (BOS) defect (intra-neurite nodules): singed (sn) mutant larval CNS neurons; for BOS effect in sn-mutant, fascin-deficient neurons relative to wild-type: at each dose; for BOS density versus dose: wild-type and sn-mutant neurons, randomly selected neurons. From the text: Following this enzymatic treatment, the tissue is washed and then mechanically triturated in culture medium to dissociate it into single cells.

Data set [2] relates to wild-type (OreRC) neurons.
For data set [3], the system named is cultured neurons with mutations in the Drosophila fragile X mental retardation 1 gene (dfmr1). It counts as cell-based. From the text: In this case, the genetic control was designed (Michel et al. (2004). J. Neurosci., 23:5798-5809) to be identical in every possible way, except for the presence or absence of a normal dfmr1 gene.

As to `COc1ccc(C[C@H]2NC[C@H](O)[C@H]2OC(C)=O)cc1` [anisomycin], the neurotoxic defects result in data set [1] was “overt neurotoxic defects”.
Take `CC(C)c1c(C(=O)Nc2ccccc2)c(-c2ccccc2)c(-c2ccc(F)cc2)n1CC[C@@H](O)C[C@@H](O)CC(=O)O` [atorvastatin]: the neurite outgrowth entry in data set [2] is given as “inhibition of neurite outgrowth”. In addition, the “beads-on-a-string (BOS) defect (intra-neurite nodules)” value (shortened to “beads-on-a-string (BOS) defect”) in data set [1] is on record as “beads-on-a-string (BOS) defect; also recorded: induced”.
On to `C[C@@H]1C[C@@H]([C@H](O)CC2CC(=O)NC(=O)C2)C(=O)[C@@H](C)C1` [cycloheximide], for which the neurotoxic defects result in data set [1] is “overt neurotoxic defects”.
In the case of `CC[C@H](C)C(=O)O[C@H]1C[C@@H](C)C=C2C=C[C@H](C)[C@H](CC[C@@H]3C[C@@H](O)CC(=O)O3)[C@H]21` [lovastatin], the “beads-on-a-string (BOS) defect” value in data set [1] is reported as “beads-on-a-string (BOS) defect; also recorded: induced”.
For the molecule `C[C@@H]1O[C@@H](O[C@H]2C[C@@H](O)[C@]3(CO)[C@H]4[C@H](O)C[C@]5(C)[C@@H](C6=CC(=O)OC6)CC[C@]5(O)[C@@H]4CC[C@]3(O)C2)[C@H](O)[C@H](O)[C@H]1O` [ouabain], the neurotoxic defects result in data set [1] is on record as “overt neurotoxic defects”.
On the same count and under the same terms, the entry for `CC(=O)O[C@H]1C(=O)[C@@]2(C)[C@H]([C@H](OC(=O)c3ccccc3)[C@]3(O)C[C@H](OC(=O)[C@H](O)[C@@H](NC(=O)c4ccccc4)c4ccccc4)C(C)=C1C3(C)C)[C@]1(OC(C)=O)CO[C@@H]1C[C@@H]2O` [paclitaxel] is “overt neurotoxic defects”.
For the molecule `CC[C@H](C)C(=O)O[C@H]1C[C@H](O)C=C2C=C[C@H](C)[C@H](CC[C@@H](O)C[C@@H](O)CC(=O)O)[C@H]21` [pravastatin], in data set [1], the “BOS effect in sn-mutant, fascin-deficient neurons relative to wild-type” value is “enhanced the sensitivity”; the “beads-on-a-string (BOS) defect” value was “beads-on-a-string (BOS) defect; also recorded: induced”; the “BOS density versus dose” value is given as “increased with dose”. Besides, the “severity of BOS defect in dfmr1-mutant neurons versus control neurons” value in data set [3] is “less severe BOS defect”.
Regarding `CC(C)c1nc(N(C)S(C)(=O)=O)nc(-c2ccc(F)cc2)c1/C=C/[C@@H](O)C[C@@H](O)CC(=O)O` [rosuvastatin], in data set [1], the “BOS effect in sn-mutant, fascin-deficient neurons relative to wild-type” value is reported as “enhanced the sensitivity”; the “beads-on-a-string (BOS) defect” value was “beads-on-a-string (BOS) defect; also recorded: induced”; the “BOS density versus dose” value is reported as “increased with dose”.
As for `C[CH2][Hg][S]c1ccccc1C(=O)[O-].[Na+]` [thimerosal], the neurotoxic defects result in data set [1] is “overt neurotoxic defects”.
